We go through 3 compounds from patent publication US6610699B2, “Use of L-carnitine and its alkanoyl derivatives in the preparation of medicaments with anticancer activity” (Sigma-Tau Industrie Farmaceutiche Riunite S.p.A., priority 1998, dated 2003).

In data set [1] the test system is M109 murine lung cancer. The data set is described as follows: Growth of M109 murine lung cancer in BALB/c mice. The class given is in vivo, mouse. As to conditions: for Tumour size, Day 8 / Tumour size, Day 11 / Tumour size, Day 13 / Tumour size, Day 15 / Tumour size, Day 20: taxol 30 mg/kg i.p., ALC 100 mg/kg os; for Tumour size, Day 8: day 8 post-inoculation; for Tumour size, Day 11: day 11 post-inoculation; for Tumour size, Day 13: day 13 post-inoculation; for Tumour size, Day 15: day 15 post-inoculation; for Tumour size, Day 20: day 20 post-inoculation. How it is done: Each ampoule of ALC is dissolved in 4 ml of the solvent provided (solution O). To be precise, 1.6 ml of solution O are brought to 40 ml with sterile buffer solution (PBS, Sigma P-4417) and then administered orally (100 mg/kg/20 ml).
At the time of use, the 12 mg/ml solution is diluted 1:4 with saline in phosphate buffer (PBS) (SIGMA,) and injected i.p. (30 mg/kg/ 10 ml).
Animals: 60 female Balb/c mice weighing 18 g (Harlan).
M109 tumour cells isolated from solid tumour.
The procedure described by Kedar E., B. Ikejiri, G. D. Bannard and R. B. Herberman (Eur. J. Cancer Clin. Oncol. 18; 991: 1982) is adopted with modifications. One Balb/c mouse (donor) was sacrificed by cervical dislocation, and after washing its back with denatured alcohol, the dorsal skin was cut longitudinally into two flaps which were detached to remove the tumour mass. The latter was placed on sterile gauze, where it was freed of connective tissue adhesions and of the necrotic and haemorrhagic parts. The study tissue was placed in a plate containing PBS with Ca^++ and Mg^++ (Gibco) at pH 7.2 and cold, broken down into pieces measuring 2-3 mm and re-suspended in a solution (15 ml solution/g tumour) of PBS with Ca^++ and Mg^++, pH 7.2m containing 2 mg/ml trypsin (type III. 10000 U/mg protein, Sigma-Aldrich), 2 mg/ml collagenase (type I-S 180 U/mg solid, Sigma), 0.2 mg/ml DNAse (type I 1548 U/mg protein. Sigma) and 25 μg/ml gentamicin (Sigma) and incubated at 37° C. for 15 minutes under constant stirring. The cell suspension was then homogenised with the aid of a potter (B. Braun) for 2 minutes, incubated at 37° C. for 10 minutes and aspirated gently a number of times with a syringe with a No. 21 sterile needle. After addition of 30 ml of RPMI-1640 (Eurobio) containing 10% FBS (Eurobio) maintained at 4° C. the cell suspension was filtered on sterile gauze and then centrifuged at 700 g for 10 minutes. The cell pellet was re-suspended gently in RPMI-1640 containing 10% FBS and 0.2 mg/ml DNAse (Sigma) and then centrifuged at 700 g for 10 minutes. The pellet was consecutively subjected to two washings with RPMI-1640; at the end of the last washing, the pellet was re-suspended gently in RPMI-1640 so as to perform the count to establish the cell concentration.
Inoculation conditions: 60 unanaesthetised Balb/c mice weighing approximately 18 g (Harlan) received i.m. injections of 3×10^5 M109 lung cancer cells in 0.1 ml of RPMI-1640 (Sigma) in the right rear paw.
Treatment schedule: for the purposes of evaluating tumour size in the experimental study groups, each consisting of 15 Balb/c mice, 3×10^5 M109 lung cancer cells were inoculated, and the study molecules were administered at the scheduled times. […] The vehicle diluted 1:4 with PBS from the mother solution was administered i.p. on days 8, 10, 12 and 14.
The tumour mass is calculated on the basis of the measurements of the two dimensions (length and width), expressed in mm. according to the following formula: [formula]
If we consider conventionally a tumour density equal to 1, the result is that the tumour volume expressed in mm^3 is equal to the weight of the tumour expressed in mg.

The subject of data set [2] is M109 murine lung cancer. The following applies: for Size of metastases / number of lung metastases (Mean ± SD): day 22 after inoculation.
Method: The animals were kept under observation up to day 22 after inoculation of the M109 murine lung cancer cells, and were then sacrificed the lungs removed to determine the number of metastases.
Determination of the number of lung metastases: on day 22 after inoculation of M109 murine lung cancer, the study animals were sacrificed by cervical dislocation. Their lungs were then removed and kept for approximately 5-7 days in 5 ml of Bouin's solution with the following composition: 71% as saturated picric acid solution (Merck), and 24% as 10% formaldehyde (Fluka). When lung metastases were evident, their numbers were counted.
Statistical analysis of the data for tumour size and number of lung metastases was carried out using the non-parametric Mann-Whitney test for unpaired data.
The test system of data set [3] is murine cancer of the breast (L-MM3). The data set is described as follows: L-MM3 tumour growth in Balb/c mice (taxol and ALC). The class given is in vivo, mouse.
Method: Treatment schedule 1: the transplantable murine breast cancer cells (L-MM3) of Balb/c origin are grown at 37° C. in plastic flasks in a 5% CO2 humidified incubator in DMEM medium containing 5% heat-inactivated FCS, L-glutamine 2 mM, and gentamicin 80 μg/ml. At the time of inoculation, the cells are detached with trypsin-EDTA and re-suspended in the same medium without PBS.
Unanaesthetised female Balb/c mice received subcutaneous injections in the flank of 4×10^5 cells in 0.2 ml of DMEM.
Treatment schedule 2: the same experimental groups mentioned above, each consisting of 15 mice (with different cage numbers) are treated as follows in order to evaluate survival and tumour size.
ALC administration lasts 14 days (in groups 16, 17, 18) and the tumour is measured until it reaches a size of approximately 2 cm. The animals are left alive for 100 days.
The tumour size (length and width) is measured twice a week with a calliper, from the tumour is measurable. Tumour size is expressed in cm and is evaluated according to the following formula: (length×width).
Tumour sizes are compared using the non-parametric Mann Whitney test for unpaired data.
For data set [4], the system named is Hamsters. The data set is described as follows: Bleomycin-induced pulmonary toxicity in hamsters: lung hydroxyproline content. As to conditions: pre-treatment i.p. (ALC 200 mg/kg or saline, daily 1 week)/intratracheal instillation (bleomycin 1 unit or saline); day 22. The class given is in vivo, hamster. Here is the method: Hamsters weighing 120 g were treated with bleomycin (1 unit) by the intratracheal route (IT) or with an equivalent volume of saline. In addition, the animals were pre-treated with ALC (200 mg/kg) or saline intraperitoneally just before the instillation of bleomycin, followed by daily injections for 1 week. The animals were allowed 3 weeks to recover prior to taking the tissue samples. At the time tissue samples were taken (day 22), one lung of each animal was prepared for histological investigation and the other lung for quantitative determination of hydroxyproline.
The hydroxyproline content (one of the main constituents of collagen) was measured using the known Woessner method. Lung samples were homogenised, hydrolysed with NaOH, and then left to oxidise before adding Erlich aldehyde reagent. Duplicate aliquots of each sample were assayed by spectrophotometry and compared with a standard calibration curve obtained with purified hydroxyproline. The hydroxyproline content (HYP) is expressed as mg/lung.

Data set [5] relates to LOVO human colon cancer. The following applies: ALC 100 mg/kg qdx18 alone.
Method: Cell cultures of LOVO human colon cancer, transplanted in hairless mice, were used.
The tumour was inoculated in solid fragments in both flanks of the mice (day 0).
The inoculated tumours were measured with a calliper and when a mean tumour weight of 100 mg was reached (day 7), the animals were divided into 4 groups of 5 animals each according to the following schedule:
On the same day, ALC treatment was initiated and was continued for 18 consecutive days (qdx18) (groups 3 and 4). ALC was administered at the dose of 100 mg/kg with an administration volume of 25 ml/kg.
In the course of the treatment and in the following three weeks at fortnightly intervals, the tumours were measured and tumour volume inhibition was calculated (TVI%, calculated as 100-(mean weight of tumours treated/mean weight of control tumours×100)) as obtained with the various treatments.
In data set [6] the test system is Female Wistar rats. Nature of the data set: Taxol-induced peripheral neuropathy: sensory nerve conduction velocity measured on the tail. As to conditions: 5 weeks.
Method: Female Wistar rats aged 3 months (Charles River) were used, housed at 22±2° C., with 50±15% relative humidity and a 12 hour light/darkness cycle.
The following method was used: the animals, anaesthetised with a gaseous mixture composed of 0.45 halothane, nitrogen protoxide and oxygen, were depilated in the stimulation zone and placed on an operating table. The recordings and stimulations of the sensory responses were done using an Ote Biomedica Phasis II electromyograph. […]
The sensory nerve conduction velocity, expressed in ms, was calculated as the ratio of the distance between the two stimulation points, expressed in mm, to the difference in latency of the waves produced by proximal (the nearest) and distal (the farthest from the dorsal spine) stimulation, expressed in ms.
The velocity was measured in all groups of animals both in basal conditions (prior to any administration) and after 5 weeks of treatment.
The results were expressed as means±standard deviation; significance was assessed using the “t”-test, for both independent and paired data, with a statistical significance cut-off of p<0.05.
In data set [7] the test system is BALB/c mice.
For data set [8], the system named is L-MM3 murine breast cancer cells. The data set is described as follows: L-MM3 murine breast cancer in Balb/c mice, taxol and PLC, Experiment A (schedule A).
Method: (§1) Cell cultures of L-MM3 murine breast cancer cells were used, cultured at 37° C. in plastic flasks in a humidified atmosphere with 5% CO^2. The cells were grown in DMEM supplemented with 10% FCS and in the presence of 2 mM L-glutamine and 80 μg/ml of gentamicin. The subconfluent cells were collected during the exponential growth phase using trypsin-EDTA and re-suspended in DMEM. They were then injected subcutaneously in female Balb/c mice weighing 20 g at a density of 4×10^5.
(§2) The tumour was measured with a calliper three times a week as soon as it became palpable. The tumour mass is calculated on the basis of the measurements of the two dimensions (length and width), expressed in mm, according to the following formula: [formula]
(§3) If we consider conventionally a tumour density equal to 1, the result is that the tumour volume is equal to (mm^3=mg).
(§4) The agent is weighed, solubilised in the specific vehicle (12 mg/ml), and stored at +4° C., sheltered from the light. At the time of use, it is diluted 1:4 with saline solution in phosphate buffer (PBS, SIGMA) and injected.
(§5) Cremophor is diluted 1:1 with ethanol and stored sheltered from the light. On the day of treatment it is diluted 1:4 with PBS.
The test system is the same in data set [9]. The data set is described as follows: L-MM3 murine breast cancer in Balb/c mice, taxol and PLC, Experiment B (schedule B).
Method: as §1, §2, §3, §4, §5
The mark [10] stands for this setting: taxol i.v. 54 mg/kg/15 ml, sacrifice after 3 days' recovery from last taxol administration.
[11] abbreviates: taxol i.v., sacrifice 6 hours after fourth taxol administration.

Molecules are shown by their SMILES. Like-named read-outs stand apart in the source and are kept apart here.

For the compound `CC(=O)O[C@H](CC(=O)[O-])C[N+](C)(C)C` [Vehicle + ALC, acetyl L-carnitine], in data set [1], the “Tumour size, Day 8” value was 567 mm^3; the “Tumour size, Day 11” value was determined as 959 mm^3; the “Tumour size, Day 13” value was found to be 1289 mm^3; the “Tumour size, Day 15” value is 1779 ± mm^3. In addition, the “Tumour size, Day 20” value in data set [1] worked out at 2251 mm^3. Further, in [2], the Size of metastases result was “M, S” and the “number of lung metastases (Mean ± SD)” value was “**77 ± 13.2”.

Turning to `CC(=O)O[C@H](CC(=O)[O-])C[N+](C)(C)C` [ALC, acetyl L-carnitine], the “effect on the anticancer activity of taxol (in words)” value in data set [3] (ALC 100 mg/kg os once daily for 14 days plus taxol 30 mg/kg i.p. x4) is “did not affect the anticancer activity of taxol”. In addition, the “effect on the anticancer action of taxol, inhibition of the tumour mass (in words)” value in data set [1] (ALC 100 mg/kg os with taxol 30 mg/kg i.p.) is on record as “does not interfere with the anticancer action of taxol”. In addition, in data set [4], the “hydroxyproline content (HYP)” value is on record as 0.801 mg/lung. In addition, the “effect on the formation of lung metastases (in words)” value in data set [2] (ALC 100 mg/kg os) is “mild inhibitory effect”. Besides, the “effect on tumour growth (in words)” value in data set [5] is given as “no effect on tumour growth”. Also, the results for the “Sensory nerve conduction velocity, % vs TAXOL” value in data set [6] (acetyl L-carnitine with taxol 8 mg/kg) and in data set [6] (acetyl L-carnitine with taxol 16 mg/kg) were 5% and 9%, respectively.

In [3] (taxol 30 mg/kg i.p. every two days x4, when control tumours reached approximately 2 cm (control 1.8 cm)), `CC(=O)O[C@H]1C(=O)[C@@]2(C)[C@H]([C@H](OC(=O)c3ccccc3)[C@]3(O)C[C@H](OC(=O)[C@H](O)[C@@H](NC(=O)c4ccccc4)c4ccccc4)C(C)=C1C3(C)C)[C@]1(OC(C)=O)CO[C@@H]1C[C@@H]2O` [Taxol, paclitaxel, reference compound] returned a L-MM3 tumour size of 0.56 cm. In data set [1], the “Tumour size, Day 8” value came to 539 mm^3; the “Tumour size, Day 11” value is 662 ± mm^3; the “Tumour size, Day 13” value is recorded as 622 ± mm^3; the “Tumour size, Day 15” value is 857 ± mm^3. The “Tumour size, Day 20” value in data set [1] is recorded as 1085 ± mm^3. Further, in data set [7] (setting [10]), the Absolute neutrophils is recorded as 330 ± /mm^3, the Lymphocytes worked out at 93.0% and the Neutrophils is 7.0%. Moreover, in data set [7] (setting [11]), the Absolute neutrophils is on record as 229 ± /mm^3, the Lymphocytes amounted to 97.1% and the Neutrophils entry is reported as “****2.9%”. In addition, in data set [2], the Size of metastases result is recorded as “S (S = Small (<1 mm diam))” and the “number of lung metastases (Mean ± SD)” value was “**9 ± 7.3”. Moreover, in [8], the “Animals with tumours/total number of animals, Day 22” value is 6/13; the “Animals with tumours/total number of animals, Day 25” value is 7/13; the “Animals with tumours/total number of animals, Day 28” value is on record as 9/13; the “Animals with tumours/total number of animals, Day 36” value is 11/13. Also, the “Animals with tumours/total number of animals, Day 46” value in data set [8] was 11/13. For the same compound, the “Animals with tumours/total number of animals, Day 19” value in [8] (taxol 30 mg/kg i.p. days 15,17,19,21, PLC 100 mg/kg s.c. days 12-24) was 6/13. Also, in data set [9], the “Animals with tumours/total animals, Day 45” value is on record as 5/10; the “Animals with tumours/total animals, Day 59” value is reported as 6/10; the “Tumour size, Day 26” value came out at 0.1 ± 0.6; the “Tumour size, Day 31” value was determined as 0.2 ± 0.2. In data set [9], the “Tumour size, Day 37” value came to 0.45 ± 0.2; the “Tumour size, Day 41” value worked out at 1.750 ± 1.1; the “Tumour size, Day 53” value stood at 5.000 ± 2.2; the “Tumour size, Day 59” value amounted to 5.6 ± 2.2. The “Tumour size, Day 0” value in data set [9] (day of inoculation) is given as 0. For the same compound, in [9] (taxol 30 mg/kg i.p. days 8,10,12,14, PLC 100 mg/kg s.c. to day 59), the “Animals with tumours/total animals, Day 31” value is on record as 2/10.
